Target: T1, Recombinant human IKKβ (IKK2) (Homo sapiens, UniProt O14920)
T1 construct: Recombinant human IKKβ (residues 1-737); GST (C); made in house
T1 sequence (O14920 1-737): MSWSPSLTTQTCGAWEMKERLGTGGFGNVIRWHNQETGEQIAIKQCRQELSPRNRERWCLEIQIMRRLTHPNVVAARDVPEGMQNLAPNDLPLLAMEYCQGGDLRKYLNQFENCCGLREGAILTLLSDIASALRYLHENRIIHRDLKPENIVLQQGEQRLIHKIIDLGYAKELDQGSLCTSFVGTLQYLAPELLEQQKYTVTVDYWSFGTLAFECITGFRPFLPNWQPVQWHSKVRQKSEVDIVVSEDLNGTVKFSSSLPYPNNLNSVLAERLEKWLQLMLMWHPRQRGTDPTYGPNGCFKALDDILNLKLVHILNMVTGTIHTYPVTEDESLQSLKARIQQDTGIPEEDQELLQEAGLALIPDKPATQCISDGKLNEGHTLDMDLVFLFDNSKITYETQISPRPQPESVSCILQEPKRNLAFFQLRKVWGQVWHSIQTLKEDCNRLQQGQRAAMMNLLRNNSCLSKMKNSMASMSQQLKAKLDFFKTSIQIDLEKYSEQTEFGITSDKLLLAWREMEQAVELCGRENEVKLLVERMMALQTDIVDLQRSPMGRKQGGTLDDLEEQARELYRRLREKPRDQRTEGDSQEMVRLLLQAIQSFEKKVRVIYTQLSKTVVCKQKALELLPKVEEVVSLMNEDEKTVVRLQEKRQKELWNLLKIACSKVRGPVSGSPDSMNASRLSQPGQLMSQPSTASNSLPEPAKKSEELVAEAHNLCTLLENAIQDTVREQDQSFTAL
Assay: IKK2 Assay (TR-FRET, phosphorylation of GST-IκBα)
Assay type: biochemical
Conditions: recombinant human IKKβ (residues 1-737), 5 nM; GST-IκBα 25 nM, ATP 1 μM; 30 minutes at room temperature; read-out: pIC50 against IKK2 (converted)
Procedure: Recombinant human IKKβ (residues 1-737) was expressed in baculovirus as a C-terminal GST-tagged fusion protein, and its activity was assessed using a time-resolved fluorescence resonance energy transfer (TR-FRET) assay. Briefly, IKK2 (5 nM final) diluted in assay buffer (50 mM HEPES, 10 mM MgCl2, 1 mM CHAPS pH 7.4 with 1 mM DTT and 0.01% w/v BSA) was added to wells containing various concentrations of compound or DMSO vehicle (3% final). The reaction was initiated by the addition of GST-IκBα substrate (25 nM final)/ATP (1 μM final), in a total volume of 30 μl. The reaction was incubated for 30 minutes at room temperature, then terminated by the addition of 15 μl of 50 mM EDTA. Detection reagent (15 μl) in buffer (100 mM HEPES pH 7.4, 150 mM NaCl and 0.1% w/v BSA) containing antiphosphoserine-IκBα-32/36 monoclonal antibody 12C2 (Cell Signalling Technology, Beverly Mass., USA) labelled with W-1024 europium chelate (Wallac OY, Turku, Finland), and an APC-labelled anti-GST antibody (Prozyme, San Leandro, Calif., USA) was added and the reaction was further incubated for 60 minutes at room temperature. The degree of phosphorylation of GST-IκBα was measured using a Packard Discovery plate reader (Perkin-Elmer Life Sciences, Pangbourne, UK) as a ratio of specific 665 nm energy transfer signal to reference europium 620 nm signal.

## Cc1cc2cc(-c3ccccc3)cc(C(N)=O)c2[nH]1 [Example 1, 2-methyl-5-phenyl-1H-indole-7-carboamide]
  IC50: ≤ 10 µM

## NC(=O)c1cc2cc(-c3ccccc3)cc(C(N)=O)c2[nH]1 [Example 2, 5-phenyl-1H-indole-2,7-dicarboxamide]
  IC50: ≤ 10 µM
